Laboratory results taken from US20170014462A1, “BONE AND JOINT PROTECTION COMPOSITION AND USE THEREOF” (INFINITUS (CHINA) COMPANY LTD., priority 2015, published 2017).

Experiments:
[1] = system: ovariectomized SD rats (rat osteoporosis model), femora; experiment: Animal efficacy test of increasing bone density and preventing osteoporosis (ovariectomized rat osteoporosis model); format: in vivo; conditions: left femora, 0.1 mg/100 g per day oral gavage, three months, N = 12, x ± s.d.
[2] = Observation of the general state and body weight in ovariectomized rats; format: in vivo, SD rats; conditions: daily observation

CCCCC(=O)O[C@H]1CC[C@H]2[C@@H]3CCc4cc(O)ccc4[C@H]3CC[C@]12C [positive control, estradiol valerate]
bone calcium content [1]: 178.2 ± 29.3 mg/g | bone density BMD [1]: 0.207 ± 0.010 g/mL | general state (exterior signs, behaviors, fecal property) compared with the model control group [2]: did not have significant difference in terms of exterior signs, behaviors, fecal property
